Target: T1, hTRPC5 (Homo sapiens, UniProt Q9UL62)
T1 construct: expressed in transfected cells; host or cells: HEK293 TREx cells with inducible TRPC5 expression
T1 sequence (Q9UL62 1-973): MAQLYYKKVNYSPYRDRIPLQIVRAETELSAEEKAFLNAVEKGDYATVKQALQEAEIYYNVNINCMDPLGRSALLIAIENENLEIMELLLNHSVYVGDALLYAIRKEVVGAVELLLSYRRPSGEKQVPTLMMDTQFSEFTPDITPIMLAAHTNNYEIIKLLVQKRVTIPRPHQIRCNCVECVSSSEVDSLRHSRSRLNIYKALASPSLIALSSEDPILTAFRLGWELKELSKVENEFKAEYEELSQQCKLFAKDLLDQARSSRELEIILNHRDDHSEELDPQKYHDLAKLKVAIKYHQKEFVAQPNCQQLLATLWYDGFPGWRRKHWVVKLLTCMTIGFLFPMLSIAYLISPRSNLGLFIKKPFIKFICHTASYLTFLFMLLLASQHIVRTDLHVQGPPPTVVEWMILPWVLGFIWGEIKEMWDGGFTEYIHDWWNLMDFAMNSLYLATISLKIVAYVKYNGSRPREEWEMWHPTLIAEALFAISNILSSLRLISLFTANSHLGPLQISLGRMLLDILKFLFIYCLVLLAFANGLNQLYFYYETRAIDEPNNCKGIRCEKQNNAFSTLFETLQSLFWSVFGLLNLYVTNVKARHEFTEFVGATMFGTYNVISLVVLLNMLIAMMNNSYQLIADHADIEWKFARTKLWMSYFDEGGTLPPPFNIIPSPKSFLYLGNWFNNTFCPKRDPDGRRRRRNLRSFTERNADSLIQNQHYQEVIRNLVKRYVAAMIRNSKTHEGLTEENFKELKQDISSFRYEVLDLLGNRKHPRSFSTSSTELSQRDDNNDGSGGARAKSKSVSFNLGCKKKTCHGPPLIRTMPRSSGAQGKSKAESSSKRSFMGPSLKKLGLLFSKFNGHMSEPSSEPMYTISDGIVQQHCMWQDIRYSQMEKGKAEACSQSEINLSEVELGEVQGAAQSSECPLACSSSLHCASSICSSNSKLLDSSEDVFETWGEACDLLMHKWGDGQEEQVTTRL
Assay: Whole-cell patch clamp, block of LaCl3-activated TRPC5 inward current
Type: cell-based
Conditions: TRPC5-expressing HEK293 TREx cells, 80 μM LaCl3, inward current, IC50 estimated from 5 μM and 500 nM, read-out: hTRPC5 Patch La3+ Inwd (nM) (All Batches)
Method: In certain embodiments, exemplary compounds of Formula I and Formula II include the compounds described in Table 1 and in the Examples. A compound described herein may be tested for its ability to block both inward and outward currents through the TRPC5 channel, e.g., by an assay as described in Example 1. For example, IC50 of a compound of Formula I or Formula II was estimated by testing the compound at 5 μM and 500 nM. […] IC50 for a compound of Formula I or Formula II between 500 nM and 5 μM was similarly estimated. As shown, “A” refers to an IC50<100 nM. “B” refers to an IC50 between 100 nM and 500 nM. “C” refers to an IC50 between 500 nM and 1000 nM. “D” refers to an IC50 between 1 μM and 2 μM. “E” refers to an IC50 between 2 μM and 10 μM. “F” refers to […]. “ND” refers to compounds wherein the IC50 was not determined.
Patch clamp experiments permit the detection of currents through the TRPC5 channel in the cell line described above. In normal whole-cell patch clamp recordings, a glass electrode is brought into contact with a single cell and a high-resistance (gigaohm) seal is established with the cell membrane. The membrane is then ruptured to achieve the whole-cell configuration, permitting control of the voltage of the cell membrane and measurement of currents flowing across the membrane using the amplifier attached to the electrode and resulting in the replacement of cytoplasm with the pipette solution. A perfusion system permits control of the extracellular solution, including the addition of blockers and activators of the current. The current can be activated by including 1.4 μM free Ca^2+ in the pipette (intracellular) solution, and 80 μM LaCl3 in the extracellular solution.
TRPC5 cells were induced 20-48 hours, removed from growth plates, and replated at low density (to attain good single-cell physical separation) on glass coverslips for measurement. In some cases, cells were grown in low density overnight on glass coverslips. Patch clamp recordings were made in the whole-cell mode with a holding potential of −40 mV. Every 5 seconds, a voltage ramp was applied from −120 to +100 mV, 400 ms in duration. Currents elicited were quantified at −80 mV and +80 mV. The internal solution consisted of 140 mM cesium aspartate, 10 mM HEDTA, 2 mM CaCl2, 2.27 mM MgCl2 and 10 mM HEPES, pH 7.2, with 1,400 nM calculated free Ca^2+. The external solution consisted of 150 mM NaCl, 4.5 mM KCl, 1 mM MgCl2, 2 mM CaCl2, 10 mM HEPES, 10 mM glucose, 1 mM EGTA, pH 7.4. Upon addition of LaCl3, TRPC5 current was induced only in TRPC5-expressing cells and not in parental HEK293 TREx cells. Removal of the LaCl3 stimulus causes most of the current to go away. Potential blockers were tested for ability to block both inward and outward currents in the continued presence of LaCl3.
IC50 of a compound of Formula I or Formula II was estimated by testing the compound at 5 μM and 500 nM. […] IC50 for a compound of Formula I or Formula II between 500 nM and 5 μM was similarly estimated.

IC50 [nM] | SMILES
2000 to 10000 | Cn1c(=O)c2c(nc(CCCO)n2Cc2cccc(Br)c2)n(C)c1=O [Compound 43]
100 to 500 | CCc1ccccc1Oc1nc2c(c(=O)n(C)c(=O)n2C)n1Cc1ccc(Cl)cc1 [Compound 74]
500 to 1000 | CCCOCCc1nc2c(c(=O)n(C)c(=O)n2C)n1Cc1cccc(Cl)c1 [Compound 107]
2000 to 10000 | COc1cccc(Cn2c(Oc3ccc(-c4ccccn4)cc3)nc3c2c(=O)n(C)c(=O)n3C)c1 [Compound 189, 7-(3-methoxybenzyl)-1,3-dimethyl-8-(4-(pyridin-2-yl)phenoxy)-1H-purine-2,6(3H,7H)-dione]
1000 to 2000 | CCOCCOc1nc2c(c(=O)n(C)c(=O)n2C)n1Cc1cccc(Br)c1 [Compound 18, 7-(3-bromobenzyl)-8-(2-ethoxyethoxy)-1,3-dimethyl-1H-purine-2,6(3H,7H)-dione]
1000 to 2000 | CCOC(=O)C(C)CCc1nc2c(c(=O)n(C)c(=O)n2C)n1Cc1cccc(Br)c1 (centres unmarked) [Compound 136, Ethyl 4-(7-(3-bromobenzyl)-1,3-dimethyl-2,6-dioxo-2,3,6,7-tetrahydro-1H-purin-8-yl)-2-methylbutanoate]
2000 to 10000 | Cn1c(=O)c2c(nc(Oc3cccc(C(F)(F)F)c3)n2-c2ccc(Cl)cc2)n(C)c1=O [Compound 196]
2000 to 10000 | Cn1c(=O)c2c(nc(Oc3cccc(C(F)(F)F)c3)n2CCCc2ccc(Cl)cc2)n(C)c1=O [Compound 195]
500 to 1000 | CCOCc1cccc(C(CC)c2nc3c(c(=O)n(C)c(=O)n3C)n2Cc2cccc(Br)c2)c1 (centres unmarked) [Compound 125, 7-(3-bromobenzyl)-8-(1-(3-(ethoxymethyl)phenyl)propyl)-1,3-dimethyl-1H-purine-2,6(3H,7H)-dione]
2000 to 10000 | CCc1coc(CSc2nc3c(c(=O)n(C)c(=O)n3C)n2Cc2cccc(C#N)c2)n1 [Compound 170, 3-((8-((4-ethyloxazol-2-yl)methylthio)-1,3-dimethyl-2,6-dioxo-2,3-dihydro-1H-purin-7(6H)-yl)methyl)benzonitrile]
100 to 500 | COCCCSc1nc2c(c(=O)n(C)c(=O)n2C)n1Cc1cccc(Br)c1 [Compound 19, 7-(3-bromobenzyl)-8-(3-methoxypropylthio)-1,3-dimethyl-1H-purine-2,6(3H,7H)-dione]
2000 to 10000 | CN(Cc1ccccc1)c1nc2c(c(=O)n(C)c(=O)n2C)n1Cc1ccc(Cl)c(Cl)c1 [Compound 67]
< 100 | CCCC(=O)C(C)(C)Sc1nc2c(c(=O)n(C)c(=O)n2C)n1Cc1cccc(Br)c1 [Compound 150, 7-(3-bromobenzyl)-1,3-dimethyl-8-(2-methyl-3-oxohexan-2-ylthio)-1H-purine-2,6(3H,7H)-dione]
1000 to 2000 | C=C(CC(=O)OCC)c1nc2c(c(=O)n(C)c(=O)n2C)n1Cc1cccc(Br)c1 [Compound 123, ethyl 3-(7-(3-bromobenzyl)-1,3-dimethyl-2,6-dioxo-2,3,6,7-tetrahydro-1H-purin-8-yl)but-3-enoate]
100 to 500 | Cn1c(=O)c2c(nc(SCc3ccccc3F)n2Cc2ccc(Cl)c(Cl)c2)n(C)c1=O [Compound 58]
1000 to 2000 | CCCOCCc1nc2c(c(=O)n(C)c(=O)n2C)n1Cc1cccc(Br)c1 [Compound 42, 7-(3-Bromobenzyl)-1,3-dimethyl-8-(2-propoxyethyl)-1H-purine-2,6(3H,7H)-dione]

IC50 [nM] | SMILES
1000 to 2000 | CCOC(=O)CCC(C)(C)c1nc2c(c(=O)n(C)c(=O)n2C)n1Cc1cccc(Br)c1 [Compound 84]
2000 to 10000 | CCCOCCc1nc2c(c(=O)n(C)c(=O)n2C)n1Cc1cccc(CO)c1 [Compound 141]
2000 to 10000 | CCCC(=O)c1cccc(Cc2nc3c(c(=O)n(C)c(=O)n3C)n2Cc2cccc(Br)c2)c1 [Compound 161, 7-(3-bromobenzyl)-8-(3-butyrylbenzyl)-1,3-dimethyl-1H-purine-2,6(3H,7H)-dione]
< 100 | CCCCC(=O)c1nc2c(c(=O)n(C)c(=O)n2C)n1Cc1cccc(Br)c1 [Compound 105, 7-(3-bromobenzyl)-1,3-dimethyl-8-pentanoyl-1H-purine-2,6(3H,7H)-dione]
100 to 500 | Cn1c(=O)c2c(nc(Oc3cccc(C(F)(F)F)c3)n2Cc2cccc(Cl)c2)n(C)c1=O [Compound 137, 7-(3-Chlorobenzyl)-1,3-dimethyl-8-(3-(trifluoromethyl)phenoxy)-1H-purine-2,6(3H,7H)-dione]
2000 to 10000 | CCOCCSc1nc2c(c(=O)n(C)c(=O)n2C)n1Cc1cccc(Cl)c1 [Compound 16]
500 to 1000 | CCOC(=O)CC(C)(C)c1nc2c(c(=O)n(C)c(=O)n2C)n1Cc1cccc(Br)c1 [Compound 96, Ethyl 3-(7-(3-bromobenzyl)-1,3-dimethyl-2,6-dioxo-2,3,6,7-tetrahydro-1H-purin-8-yl)-3-methylbutanoate]
1000 to 2000 | CCCOCCCc1nc2c(c(=O)n(C)c(=O)n2C)n1Cc1cccc(Br)c1 [Compound 82, 7-(3-bromobenzyl)-1,3-dimethyl-8-(3-propoxypropyl)-1H-purine-2,6(3H,7H)-dione]
100 to 500 | CCOC(=O)CC(C)c1nc2c(c(=O)n(C)c(=O)n2C)n1Cc1cccc(Br)c1 (centres unmarked) [Compound 86]
500 to 1000 | CCCOCCc1nc2c(c(=O)n(C)c(=O)n2C)n1Cc1ccc(-c2ccccc2)cc1 [Compound 129, 7-(biphenyl-4-ylmethyl)-1,3-dimethyl-8-(2-propoxyethyl)-1H-purine-2,6(3H,7H)-dione]
500 to 1000 | CCCOCCc1nc2c(c(=O)n(C)c(=O)n2C)n1Cc1cccc(OC(F)(F)F)c1 [Compound 88]
100 to 500 | Cn1c(=O)c2c(nc(Oc3cccc(C(F)(F)F)c3)n2Cc2cccc(Br)c2)n(C)c1=O [Compound 138, 7-(3-Bromobenzyl)-1,3-dimethyl-8-(3-(trifluoromethyl)phenoxy)-1H-purine-2,6(3H,7H)-dione]
2000 to 10000 | Cc1coc(-c2cccc(Cc3nc4c(c(=O)n(C)c(=O)n4C)n3Cc3cccc(Br)c3)c2)n1 [Compound 104]
< 100 | Cc1cc(Cn2c(Oc3cccc(OC(F)(F)F)c3)nc3c2c(=O)n(C)c(=O)n3C)ccc1Cl [Compound 206, 7-(4-chloro-3-methylbenzyl)-1,3-dimethyl-8-(3-(trifluoromethoxy)phenoxy)-1H-purine-2,6(3H,7H)-dione]
2000 to 10000 | CCCOCCc1nc2c(c(=O)n(C)c(=O)n2C)n1Cc1ccc(C)cc1 [Compound 94, 1,3-dimethyl-7-(4-methylbenzyl)-8-(2-propoxyethyl)-1H-purine-2,6(3H,7H)-dione]
2000 to 10000 | CCCOCCc1nc2c(c(=O)n(C)c(=O)n2C)n1Cc1ccc(OC)cc1 [Compound 89]

Reference: patent publication US20160145257A1, “SUBSTITUTED XANTHINES AND METHODS OF USE THEREOF” (Hydra Biosciences, Inc., priority 2013, published 2016)
